The text below walks through data of PMC11476959, “Structural Insights and Catalytic Mechanism of 3-Hydroxybutyryl-CoA Dehydrogenase from Faecalibacterium Prausnitzii A2-165” (International Journal of Molecular Sciences, 2024).

The target of assay [1] is T1, 3-hydroxybutyryl-CoA dehydrogenase of A2-165 (A2HBD; A2-165 BHBD) (Faecalibacterium duncaniae, UniProt C7H5K9).
T1 construct: gene FAEPRAA2165_01580; full-length (Met1-Leu290 printed, 867 bp gene), C-terminal 6xHis kept, pET21a, E. coli BL21(DE3); hexamer in solution; N-terminus MKIGVI and C-terminus TPVDQ-LE(H6) from the printed primers; Leu290 probably comes from the XhoI site
T1 sequence (C7H5K9 entry or part of it): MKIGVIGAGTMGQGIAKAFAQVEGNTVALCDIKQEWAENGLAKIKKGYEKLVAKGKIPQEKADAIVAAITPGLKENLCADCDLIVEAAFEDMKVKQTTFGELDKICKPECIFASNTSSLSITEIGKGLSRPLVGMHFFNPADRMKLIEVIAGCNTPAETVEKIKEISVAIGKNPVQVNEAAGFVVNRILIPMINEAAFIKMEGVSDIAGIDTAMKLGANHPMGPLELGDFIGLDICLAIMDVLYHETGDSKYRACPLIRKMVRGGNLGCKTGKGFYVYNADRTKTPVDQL
Briefly: microscale thermophoresis. It counts as binding. (In MST a laser heats a spot of the sample, and binding alters the fluorescence response.)

Assay [2] concerns the target 3-hydroxybutyryl-CoA dehydrogenase of Faecalibacterium prausnitzii A2-165 (Faecalibacterium prausnitzii A2-165). In words: SEC-MALS; 2.018 mg/mL A2HBD on Superdex 200 Increase, 20 mM Tris-HCl pH 8.0, 150 mM NaCl, 0.3 mL/min; main peak 92% of the scattered mass.

Broadly, the Kd is a measure of binding affinity in units of concentration. A lower Kd goes with tighter binding. In assay [1], `CC(=O)CC(=O)SCCNC(=O)CCNC(=O)[C@H](O)C(C)(C)COP(=O)(O)OP(=O)(O)OC[C@H]1O[C@@H](n2cnc3c(N)ncnc32)[C@H](O)[C@@H]1OP(=O)(O)O` [acetoacetyl-CoA] registered a Kd of 23.9 µM.
`NC(=O)c1ccc[n+]([C@@H]2O[C@H](COP(=O)(O)OP(=O)(O)OC[C@H]3O[C@@H](n4cnc5c(N)ncnc54)[C@H](O)[C@@H]3O)[C@@H](O)[C@H]2O)c1` [NAD^+] yielded a Kd in assay [1] of 347 µM.
By stoichiometry N is commonly meant the number of molecules, sites or subunits per partner or assembly. For “3-hydroxybutyryl-CoA dehydrogenase of Faecalibacterium prausnitzii A2-165 (enzyme)”, in assay [2], the stoichiometry N was 6.
